Laboratory results: patent US20250263439A1, “HETERODIMERIC PEPTIDE REAGENTS AND METHODS” (REGENTS OF THE UNIVERSITY OF MICHIGAN, priority 2018, published 2025)
Where “and” joins values, the source holds several entries; their conditions need not be identical. Equal entries are not always repeated. Entries after “also recorded” stand apart in the source; their conditions may differ.

What was measured:
[1] = system: EGFR and ErbB2 mediated signaling; assay: Effect on downstream cell signaling in SKBr3 cells (Western blot); format: cell-based, human; details: heterodimer at 1, 5, and 20 μM
Method: The effect of heterodimer binding on downstream signaling was evaluated in SKBr3 cells. SKBr3 cells were seeded in 6-well flat-bottom plates. […] EGF (#E9644, Sigma) was reconstituted to 1 mg/mL using 10 mM acetic acid, diluted with 0.1% BSA, and added to SKBr3 cells at a concentration of 100 ng/mL. Lapatinib (CDS022971, Sigma) was diluted to 100 nM in DMSO and PBS from 1 mg/mL stock solution, and was added to the cells incubated with heterodimer at concentrations of 1, 5, and 20 μM in separate wells.

OE33 xenograft tumors = assay: In vivo competition with unlabeled peptide monomers; parameters: species or system mice; details: two hours after heterodimer injection
Method: In vivo heterodimer specificity was assessed by competition with 3000 μM of unlabeled peptide monomer or a mixture of two monomers diluted in 50 μL of PBS injected 20 min beforehand in tumor-bearing mice (n=4 per group). Blocking studies were carried out by injecting unlabeled QRH*, KSP*, and both monomers together to validate in vivo specificity. Images were collected at two hours after heterodimer injection when peak uptake was expected. The ratio of fluorescence intensity in tumor was calculated using regions of interest (ROI), and the results were presented as mean±standard deviation (SD).

[2] = system: EGFR and/or ErbB2 in SKBr3 cells; assay: Co-localization of Cy5.5 heterodimer with anti-EGFR and anti-ErbB2 antibodies on SKBr3 cells; format: cell-based, human; details: confocal microscopy
Method: Co-localization experiments were performed to validate specific heterodimer binding to EGFR and/or ErbB2 in SKBr3 cells. Cells were cultured to about 70% confluence on glass coverslips, washed with PBS, and incubated with 2% BSA in PBS for 30 min to block non-specific binding. 1 μM of Cy5.5-labeled peptides were added and incubated for 30 min or 1 hour at 4° C. The cells were then washed 3× with PBS, fixed with ice cold 4% paraformaldehyde (PFA) for 10 min, washed with PBS 1×, and then mounted on glass slides with ProLong Gold reagent containing DAPI (Invitrogen).
For antibody staining, cells were incubated with either anti-EGFR (1:500, #2232S) or anti-ErbB2 (1:500, #29D8) primary antibody from Cell Signaling Inc overnight at 4° C. after fixation, and then washed with PBS 3× and processed with secondary antibody staining. Either goat anti-rabbit IgG (H+L) labeled with Alexa-Fluor 488 (1:1000, #A-11008, Invitrogen) or goat anti-mouse IgG (H&L) labeled with Alexa-Fluor 568 (1:1000, #ab175473, Abcam) was added and incubated for 1 hour at room temperature (RT). The cells were washed with PBS 3×, and mounted onto glass coverslips. Confocal fluorescence images were collected using DAPI, AF488, AF568 and Cy5.5 filter sets. Fluorescence intensities from 3 independent images were quantified using custom Matlab (Mathworks) software.

SKBr3 cells = assay: Heterodimer internalization in SKBr3 cells over time (confocal); format: cell-based, human
Method: Using confocal microscopy, images were collected over time to evaluate heterodimer internalization. […] Binding by anti-EGFR-AF568 (yellow) and anti-ErbB2-AF488 (green) to the surface (arrows) of the same cells is shown for comparison. On the merged images, a Pearson's correlation coefficient was measured for the heterodimer with the anti-EGFR antibody (ρ=0.77) and the anti-ErbB2 (ρ=0.65) antibody. […] The DAPI images highlight the location of cell nuclei prior to heterodimer incubation, FIG. 3B. Binding of QRH*-KSP*-E3-Cy5.5 (red) to the cell surface is seen at […]. The heterodimer starts to internalize at 4 min, and complete internalization is seen at 40 min.

[3] = system: Barrett's neoplasia (HGD and EAC); assay: Confocal microscopy of human esophageal specimens ex vivo
Method: The fluorescence intensities from the human esophageal specimens were fit according to 4 histological classifications, including squamous (SQ), Barrett's esophagus (BE), high-grade dysplasia (HGD), and esophageal adenocarcinoma (EAC), and used a one-way ANOVA and used Tukey's multiple comparisons. Co-localization of peptide and antibody binding was evaluated using Pearson's correlation coefficient.
Using confocal microscopy, specific heterodimer binding to Barrett's neoplasia was validated on human specimens ex vivo. Formalin-fixed, paraffin-embedded (FFPE) specimens of human esophagus were obtained from the archived tissue bank in the Department of Pathology, University of Michigan. The tissues were cut into […], deparaffinized, and rehydrated using standard conditions. Two-step acidic and protease-based antigen retrieval was performed. The sections were blocked with protein serum for 10 min at RT followed by rinsing with PBS, and then incubated with the heterodimer (0.5 μM) for ten min in dark conditions at RT. The sections were then washed for three min 3× with PBS and further incubated sequentially with 1:200 dilution of EGFR monoclonal antibody (H11, #MA5-13070, Invitrogen) and 1:500 goat anti-mouse IgG (H+L) AF-568-labeled secondary antibody (#A-11004, Thermo Fisher Scientific), 1:500 dilution of ErbB2 primary antibody (#29D8, rabbit monoclonal antibody #2165S, Cell Signaling Inc), and 1:1000 goat anti-rabbit IgG (H+L) AF-488-labeled secondary antibody (#A11008, Life Technologies Corp). Each antibody was incubated for 1 hour at RT. Sections were washed with TBST 3× and mounted with Prolong Gold reagent containing DAPI (Invitrogen) using #1 cover glass ([…]). Confocal fluorescence microscopy was performed using DAPI, AF488, AF568 and Cy5.5 filter sets. Image quantification was performed by placing 3 boxes with dimensions of 20×20 μm^2 completely within cells found in the epithelium. Mean fluorescence intensities were measured using custom Matlab software (Mathworks). Regions of saturated intensities were avoided.

## heterodimer of QRHKPRE (SEQ ID NO: 1) and KSPNPRF (SEQ ID NO: 2) with E3 (triethyleneglycol) linker, Cy5.5 label [QRH*-KSP*-E3-Cy5.5]
[1]
  phosphorylation of EGFR (p-EGFR) and ErbB2 (p-ErbB2): no change
  phosphorylation of downstream AKT (p-AKT) and ERK (p-ERK): no downstream change
OE33 xenograft tumors
  tumor signal after prior injection of unlabeled QRH*, KSP*, or both: reduction of signal
[2]
  binding to surface of SKBr3 cells: bind strongly
SKBr3 cells
  time at which heterodimer starts to internalize: 4 min and 8 to 20 min
  time of complete internalization / strong signal inside cells: 40 min
[3]; human specimens ex vivo
  staining of high-grade dysplasia (HGD) and esophageal adenocarcinoma (EAC): increased signal; also recorded: increased staining intensity
  staining of squamous (SQ) and Barrett's esophagus (BE): Minimal fluorescence signal; also recorded: minimal staining
[3]; n=31, 8, 23, and 12 specimens of SQ, BE, HGD, EAC
  mean fluorescence intensity of neoplasia compared with BE and SQ: significantly greater mean fluorescence intensity
